These compounds were tested against T1, Carbonic anhydrase 2 (Mycobacterium tuberculosis, UniProt P9WPJ9).
T1 sequence (P9WPJ9 whole entry): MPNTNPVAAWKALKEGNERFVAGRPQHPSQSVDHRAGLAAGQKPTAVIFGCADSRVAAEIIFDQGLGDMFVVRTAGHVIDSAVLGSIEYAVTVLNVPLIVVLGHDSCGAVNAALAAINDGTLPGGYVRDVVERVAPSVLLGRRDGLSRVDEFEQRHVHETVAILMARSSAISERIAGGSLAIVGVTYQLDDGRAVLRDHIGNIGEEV
Description: Inhibition of full length Mycobacterium tuberculosis H37Rv recombinant carbonic anhydrase 2 encoded by RV3588c by stopped flow CO2 hydration assay
`Nc1ccc(S(N)(=O)=O)cc1I` was tested, and the Ki was 32.4 µM. With `Cc1ccc(S(N)(=O)=O)cc1` [P-TOLUENESULFONAMIDE] the Ki was 38.9 µM. For `NS(=O)(=O)c1nnc(-c2ccccc2Cl)s1`, the Ki was 45.2 µM. In the case of `NS(=O)(=O)c1ccc(CO)cc1`, the Ki is reported as 38.3 µM. `NCCc1ccc(S(N)(=O)=O)cc1` gave a Ki of 29.1 µM. `NS(=O)(=O)c1ccc(S(=O)(=O)Nc2cccc3c(Cl)c[nH]c23)cc1` gave a Ki of 0.717 µM. `Nc1ccc(S(=O)(=O)NCCc2ccc(S(N)(=O)=O)cc2)cc1` gave a Ki of 2.29 µM. Work on `NCc1ccc(S(N)(=O)=O)cc1` [MAFENIDE] yielded a Ki of 30.7 µM. Compound `Nc1ccc(S(N)(=O)=O)cc1Br` has a Ki of 31.6 µM.

From ChEMBL document CHEMBL1154641 (Bioorg Med Chem Lett, 2009)
